The record followed here is the NIST ThermoML archive (doi:10.1016/j.jct.2013.04.007).

The structures appear in SMILES notation.

The nature of the data set: cn = amount concentration of the nth substance listed, in mol/dm3. The note with it: 303.15 K; 101 kPa; Liquid; 4510 conductivity meter; c1 = 0.001.

On to `CC1=C(C(=O)O)N2C(=O)[C@@H](NC(=O)[C@H](N)c3ccc(O)cc3)[C@H]2SC1` [cefadroxil] + O, for which the electrical conductivity turned out to be 0.0001 S/m.
